Source: patent publication US20210254138A1, “SIALIC ACID TRANSPORTER PROTEINS AS BIOMARKERS AND DRUG TARGETS” (Quadram Institute Bioscience, priority 2018, published 2021)

Assays:
[1] = system: R. gnavus ATCC 29149 wild-type; experiment: Growth on sole carbon source, wild-type strain; format: cell-based; conditions: 11.1 mM in YCFA, anaerobic
Procedure: R. gnavus ATCC 29149 was routinely grown in an anaerobic cabinet (Don Whitley, Shipley, UK) in BHI-YH as previously described (Crost et al., 2013). Growth on single carbon sources utilized anaerobic basal YCFA medium (Duncan et al., 2002) supplemented with 11.1 mM of specific mono- or oligosaccharides (2,7-anhydro-Neu5Ac, 3'Sialyllactose (3'SL) or glucose). The bacteria were grown to late exponential phase for RNA extraction, the culture was performed in 14 ml tubes. Growth was determined spectrophotometrically by monitoring changes in optical density at […] compared to the same medium without bacterium (ΔOD595 nm) hourly for 10 hours.
(§1) The ability of the mutants to utilise sialic acids and sialoconjugates was assessed by supplementing YCFA with 11.1 mM of 2,7-anhydro-Neu5Ac, 3'SL, glucose or Neu5Ac in triplicate 200 μl cultures in 96-well microtiter plates. The OD595 nm was measured hourly for 10 h in an infinite F50 plate reader (Tecan, UK) housed within an anaerobic cabinet connected to Magellan V7.0 software.

[2] = system: R. gnavus ATCC 29149 nan deletion mutants; experiment: Growth on sole carbon source, nan deletion mutants; format: cell-based; conditions: 11.1 mM in YCFA, anaerobic
Source text: R. gnavus mutants were generated using the ClosTron methodology (Heap et al., 2010), which inserts an erythromycin resistance cassette into the gene of interest. Target sites were identified using the Pertuka method (Perutka et al., 2004). The re-targeted introns were synthesised and ligated into the pMTL007C-E2 vector by ATUM (MenloPark, USA). The plasmids were then transformed into E. coli CA434 using the heat-shock protocol, and the recombinant clones selected for chloramphenicol resistance. Recombinant E. coli cells were grown overnight in 10 ml LB, 1 ml of the overnight culture was pelleted and washed with PBS. The E. coli cell pellet was resuspended in 200 μl of an R. gnavus overnight culture and the cell suspension spotted onto a non-selective BHI-YH plate. […]
as §1

For `CC(=O)N[C@H]1C2OC(C(=O)O)(C[C@@H]1O)O[C@@H]2[C@H](O)CO` (some centres unmarked) [2,7-anhydro-Neu5Ac], the “utilisation as a sole carbon source (growth)” value [1] was “able to utilise” and the “growth on substrate as sole carbon source” value [2] was “no growth was detected”.
